Reference: ChEMBL document CHEMBL1128945, “Peptide inhibitors of IKB protease: Modification of the C-termini of Z-LLF-CHO” (Bioorg Med Chem Lett, 1996)
Square brackets hold non-standard residues; d marks the D form. Peptide text beside a SMILES is read from it. * marks the point of attachment. 1Nal = N[C@@H](Cc1cccc2ccccc12)C(=O)O; 2Nal = N[C@@H](Cc1ccc2ccccc2c1)C(=O)O; Cbz = O=C(OCc1ccccc1)*

How the values were obtained:
[1] = Compound was evaluated for its ability to inhibit activation of NFkB protease stably expressed in human Jurkat T-cells; type: cell-based
Jurkat [2] = experiment: Ability to decrease IL-2 levels in human Jurkat T-cells; type: functional, cell-based
Jurkat [3] = experiment: Ability to decrease IL-8 levels in human Jurkat T-cells; type: functional, cell-based

SMILES	IC50 [1] [µM]	IC50 (Jurkat [2]) [µM]	IC50 (Jurkat [3]) [µM]
CC(C)C[C@H](NC(=O)OCc1ccccc1)C(=O)N[C@@H](CC(C)C)C(=O)N[C@@H](Cc1ccccc1)C(=O)C(F)(F)C(F)(F)F	> 30		
CC(C)CC(NC(=O)OCc1ccccc1)C(=O)NC(CC(C)C)C(=O)NC(C=O)Cc1ccccc1 (stereo not drawn) (Cbz-Leu-Leu-Phe-aldehyde; configuration not given here)	2	0.9	2
CC(C)C[C@H](NC(=O)[C@H](Cc1cccc2ccccc12)NC(=O)[C@H](Cc1ccc2ccccc2c1)NC(=O)OCc1ccccc1)C(=O)O (Cbz-[2Nal]-[1Nal]-Leu-OH)	3		
CON(C)C(=O)[C@H](Cc1ccccc1)NC(=O)[C@H](CC(C)C)NC(=O)[C@H](CC(C)C)NC(=O)OCc1ccccc1 (stereo in doubt; 4b(D))	> 30		

Second part, the molecule after the results:

IC50 [1] [µM]	IC50 (Jurkat [2]) [µM]	IC50 (Jurkat [3]) [µM]	SMILES
> 30			CC(C)C[C@H](NC(=O)OCc1ccccc1)C(=O)N[C@@H](CC(C)C)C(=O)N[C@@H](Cc1ccccc1)C(=O)Nc1ccc(C(F)(F)F)cc1
> 10			CC(=O)c1cccc(NC(=O)[C@H](CC(C)C)NC(=O)[C@H](CC(C)C)NC(=O)OCc2ccccc2)c1
20			CC(C)C[C@H](NC(=O)OCc1ccccc1)C(=O)N[C@@H](CC(C)C)C(=O)N[C@@H](Cc1ccccc1)C(=O)C(=O)C(=O)OCc1ccccc1
> 30			CC(=O)[C@H](Cc1ccccc1)NC(=O)[C@H](CC(C)C)NC(=O)[C@H](CC(C)C)NC(=O)OCc1ccccc1
18			CON(C)C(=O)[C@H](Cc1ccccc1)NC(=O)[C@H](CC(C)C)NC(=O)[C@H](CC(C)C)NC(=O)OCc1ccccc1 (stereo in doubt; 4a(L))
